# Test results published in patent US20250195483A1, “SPIRO PIPERIDINE DERIVATIVES AS INHIBITORS OF APOL1 AND METHODS OF USING SAME” (Vertex Pharmaceuticals Incorporated, priority 2022, published 2025).
# Target: T1, APOL1 (Homo sapiens, UniProt O14791)
# T1 sequence (O14791 1-398): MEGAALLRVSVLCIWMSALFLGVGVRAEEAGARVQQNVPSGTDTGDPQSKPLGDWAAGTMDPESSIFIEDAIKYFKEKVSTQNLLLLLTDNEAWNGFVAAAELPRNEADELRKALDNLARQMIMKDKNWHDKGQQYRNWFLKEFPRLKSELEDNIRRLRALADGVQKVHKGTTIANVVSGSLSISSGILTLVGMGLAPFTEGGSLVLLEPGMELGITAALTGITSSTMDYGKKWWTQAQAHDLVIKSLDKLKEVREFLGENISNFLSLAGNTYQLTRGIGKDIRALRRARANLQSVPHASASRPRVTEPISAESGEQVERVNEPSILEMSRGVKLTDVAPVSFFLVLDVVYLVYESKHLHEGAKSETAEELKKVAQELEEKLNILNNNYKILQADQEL
# Experiment: MultiTox-Fluor Multiplex Cytotoxicity Assay, tet-inducible APOL1 T-REx-HEK293 cells (G0, G1 or G2 clone not specified for Table 20)
# Format: cell-based
# Conditions: tet-induced, 24 hours with compound, ratio of dead to live cells, read-out: IP50 (i.e., IC50 for cell proliferation)
# Method: Human embryonic kidney (HEK293) cell lines containing a tet-inducible expression system (T-REx™; Invitrogen, Carlsbad, CA) and Adeno-associated virus site 1 pAAVS1-Puro-APOL1 G0 or pAAVS1-Puro-APOL1 G1 or pAAVS1-Puro-APOL1 G2 Clones G0 DC2.13, G1 DC3.25, and G2 DC4.44 were grown in a T-225 flask at ˜90% confluency in cell growth media (DMEM, 10% Tet-free FBS, 2 mM L-glutamine, 100 Units/mL penicillin-streptomycin, 5 μg/mL blasticidin S HCl, 1 μg/mL puromycin dihydrochloride). Cells were washed with DPBS and then trypsinized to dissociate from the flask. Media was used to quench the trypsin, cells were then pelleted at 200 g and resuspended in fresh cell assay media (DMEM, 2% Tet-free FBS, 2 mM L-glutamine, 100 Units/mL penicillin-streptomycin). Cells were counted and diluted to 1.17×10^6 cells/mL. 20 μL of cells (23,400/well) were dispensed in every well of a 384-well Poly-D-Lysine coated plate using the Multidrop dispenser. The plates were then incubated at room temperature for one hour.
# Tetracycline is needed to induce APOL1 expression. 1 mg/mL tet stock in water was diluted to 250 ng/mL (5×) in cell assay media. 60 μL of cell assay media (no tet control) was dispensed in columns 1 and 24, and 60 μL of 5× tet in 384-PP-round bottom plate was dispensed in columns 2 to 23 with the Multidrop dispenser.
# Assay ready plates from the Global Compound Archive were ordered using template 384_APOL1Cell_DR10n2_50 uM_v3. Compounds were dispensed at 200 nL in DMSO. The final top concentration was 10 μM with a 10 point 3-fold dilution in duplicate in the MultiTox assay.
# 20 μL was transferred from the 5× tet plate to the ARP and mixed, then 5 μL of 5× tet and the compounds were transferred to the cell plate and mixed using the Bravo. The cell plate was placed in the humidified 37° C. 5% CO2 incubator for 24 hours.
# The MultiTox-Fluor Multiplex Cytotoxicity Assay was performed in accordance with the manufacturer's protocol. After cells were incubated with tet and compound for 24 hours, 25 μL of 1× MultiTox reagent was added to each well using the Multidrop dispenser; the plates were placed on a plate shaker (600 rpm) for 2 minutes, then centrifuged briefly and placed back in the 37° C. incubator for 30 minutes. The cell viability (excitation: 400 nm, emission: 486 nm) and cytotoxicity (excitation: 485 nm, emission: 535 nm) were read using the EnVision plate reader. A ratio of dead (cytotoxicity) to live (viability) cells was reported. Data was exported and analyzed in Genedata. Data was normalized using percent of control, no tet (100% viability), and 50 ng/mL tet treated (0% viability), and fit using Smart Fit settings in Genedata.
row,Structure (SMILES),IC50
1,CNC(=O)C1OC2(CCN(Cc3cnn(-c4ccccc4)c3)CC2)c2cc(C(F)(F)F)ccc21 (stereo not drawn) [Compound 199],50 to 500 nM
2,CNC(=O)Cn1cc(CN2CCC3(CC2)C(=O)Nc2ccc(C)cc23)cn1 [Compound 28],≥ 500 nM
3,CN1C(=O)C2(CCN(Cc3cnn(CC4(O)CCS(=O)(=O)CC4)c3)CC2)c2cc(Cl)ccc21 [Compound 54],50 to 500 nM
4,CS(=O)(=O)CCn1cc(CN2CCC3(CC2)OC(C(N)=O)c2ccc(Cl)cc23)cn1 (stereo not drawn) [Compound 214],≤ 50 nM
5,Cc1ccc2c(c1)C1(CCN(Cc3cnn(CCO)c3)[C@@H](C)C1)OCC2 (stereo partly drawn) [Compound 98],≤ 50 nM
6,Cc1nc(CN2CCC3(CC2)OC(C(N)=O)c2ccc(Cl)cc23)co1 (stereo not drawn) [Compound 221],≥ 500 nM
7,Cc1ccc2c(c1)C1(CCN(Cc3cnn(C)c3)C(C)C1)OCC2 (stereo not drawn) [Compound 92],≤ 50 nM
8,CC(C)Oc1ccc(CN2CCC3(CC2)C(=O)Nc2ccc(Cl)cc23)cc1 [Compound 7],50 to 500 nM
9,NC(=O)C1OC2(CCN(Cc3ccc(S(N)(=O)=O)cc3F)CC2)c2cc(Cl)ccc21 (stereo not drawn) [Compound 243],50 to 500 nM
10,C[C@H]1C[C@@]2(CCN1Cc1cnn3c1CCC3)OCCc1ccc(Cl)cc12 [Compound 113],≥ 500 nM
11,Cn1ccc(CN2CCC3(CC2)OC(C(N)=O)c2ccc(Cl)cc23)cc1=O (stereo not drawn) [Compound 269],≥ 500 nM
12,"NC(=O)C1OC2(CCN(Cc3cnn(-c4ccccc4)c3)CC2)c2cc(Cl)ccc21 (single isomer, unassigned) [Compound 194, 5-chloro-1′-[(1-phenylpyrazol-4-yl)methyl]spiro[1H-isobenzofuran-3,4′-piperidine]-1-carboxamide]",≤ 50 nM
13,C[C@H]1C[C@@]2(CCN1Cc1cnn(C[C@H](O)C(C)(C)O)c1)OCCc1ccc(Cl)cc12 [Compound 125],≤ 50 nM
14,Cc1ccc2c(c1)[C@@]1(CCN(Cc3cnc(NC(C)(C)CO)nc3)[C@@H](C)C1)OCC2 [Compound 95],≥ 500 nM
15,NC(=O)C1OC2(CCN(Cc3cnc4c(c3)COCC4)CC2)c2cc(Cl)ccc21 (stereo not drawn) [Compound 238],≥ 500 nM
16,C[C@H]1C[C@@]2(CCN1Cc1cn(Cc3ncc4c(n3)CCOC4)nn1)OCCc1ccc(Cl)cc12 [Compound 177],50 to 500 nM
17,NC(=O)C1OC2(CCN(Cc3ccc(F)c(S(N)(=O)=O)c3)CC2)c2cc(Cl)ccc21 (stereo not drawn) [Compound 274],≥ 500 nM
18,"NC(=O)C1OC2(CCN(Cc3cnn(-c4ccccc4)c3)CC2)c2cc(Cl)ccc21 (stereo not drawn) [Compound 191, 5-chloro-1′-[(1-phenylpyrazol-4-yl)methyl]spiro[1H-isobenzofuran-3,4′-piperidine]-1-carboxamide]",≤ 50 nM
19,Cc1nc(CN2CCC3(CC2)OC(C(N)=O)c2ccc(Cl)cc23)c[nH]1 (stereo not drawn) [Compound 222],≥ 500 nM
20,"CNC(=O)C1OC2(CCN(Cc3cnn(-c4ccccc4)c3)CC2)c2cc(Cl)ccc21 (stereo not drawn) [Compound 195, 5-chloro-N-methyl-1′-[(1-phenylpyrazol-4-yl)methyl]spiro[1H-isobenzofuran-3,4′-piperidine]-1-carboxamide]",≤ 50 nM
21,C[C@H]1C[C@@]2(CCN1Cc1cn(CC(C)(C)NS(C)(=O)=O)nn1)OCCc1ccc(Cl)cc12 [Compound 167],≤ 50 nM
22,C[C@H]1C[C@@]2(CCN1Cc1cn(CC(O)CO)nn1)OCCc1ccc(Cl)cc12 (stereo partly drawn) [Compound 152],≤ 50 nM
23,COc1cncc(CN2CCC3(CC2)C(=O)Nc2ccc(Cl)cc23)c1 [Compound 5],≥ 500 nM

row,Structure (SMILES),IC50
1,Cc1nc(C)c(CN2CCC3(CC2)OC(C(N)=O)c2ccc(Cl)cc23)o1 (stereo not drawn) [Compound 276],≥ 500 nM
2,Nc1ncc(CN2CCC3(CC2)C(=O)Nc2ccc(Cl)cc23)s1 [Compound 3],50 to 500 nM
3,NC(=O)c1cccc(CN2CCC3(CC2)OC(C(N)=O)c2ccc(Cl)cc23)c1F (stereo not drawn) [Compound 240],≥ 500 nM
4,"C[C@H]1C[C@@]2(CCN1Cc1cnn(CCS(C)(=O)=O)c1)OCCc1ccc(Cl)cc12 [Compound 88, (1R,2′S)-7-chloro-2′-methyl-1′-[[1-(2-methylsulfonylethyl)pyrazol-4-yl]methyl]spiro[isochromane-1,4′-piperidine]]",≤ 50 nM
5,C[C@H]1C[C@@]2(CCN1Cc1cnn(CC(C)(CO)CO)c1)OCCc1ccc(Cl)cc12 [Compound 115],≤ 50 nM
6,CS(=O)(=O)CCn1cc(CN2CCC3(CC2)C(=O)N(C2COC2)c2ccc(Cl)cc23)cn1 [Compound 49],50 to 500 nM
7,C[C@H]1C[C@@]2(CCN1Cc1ccc3c(c1)n(C)c(=O)n3C)OCCc1ccc(Cl)cc12 [Compound 107],≤ 50 nM
8,"C[C@H]1CC2(CCN1Cc1cnn(CCS(C)(=O)=O)c1)C(=O)Nc1ccc(Cl)cc12 (stereo in doubt) [Compound 74, (2′S, 3R)-5-chloro-2′-methyl-1′-[[1-(2-methylsulfonylethyl)pyrazol-4-yl]methyl]spiro[indoline-3,4′-piperidine]-2-one]",≥ 500 nM
9,Cc1ccc2c(c1)C1(CCN(Cc3cnn(C)c3)C(C)C1)OCC2 (stereo not drawn) [Compound 93],≤ 50 nM
10,Cc1nnc(O)c(Cn2cc(CN3CC[C@]4(C[C@@H]3C)OCCc3ccc(Cl)cc34)nn2)c1C [Compound 178],50 to 500 nM
11,Cc1ncc(CN2CC[C@]3(C[C@@H]2C)OCCc2ccc(Cl)cc23)cn1 [Compound 112],≤ 50 nM
12,C[C@H]1C[C@@]2(CCN1Cc1cnn(CCO)c1)OCCc1ccc(Cl)cc12 [Compound 103],≤ 50 nM
13,CN1C(=O)C2(CCN(Cc3cnc(NC(C)(C)CO)nc3)CC2)c2cc(Cl)ccc21 [Compound 40],50 to 500 nM
14,"Cn1cc(CN2CCC3(CC2)NCc2ccc(Cl)cc23)cn1 [Compound 311, 6-chloro-1′-[(1-methylpyrazol-4-yl)methyl]spiro[isoindoline-1,4′-piperidine]]",≥ 500 nM
15,"CN1C(=O)C2(CCN(Cc3cnn(CCS(C)(=O)=O)c3)CC2)c2cc(Cl)ccc21 [Compound 37, 5-chloro-1-methyl-1′-[[1-(2-methylsulfonylethyl)pyrazol-4-yl]methyl]spiro[indoline-3,4′-piperidine]-2-one]",50 to 500 nM
16,"Cc1cccc2c1C(O)CC21CCN(Cc2cnn(CCS(C)(=O)=O)c2)[C@@H](C)C1 (stereo partly drawn) [Compound 309, (2′S)-2′,4-dimethyl-1′-((1-(2-(methylsulfonyl)ethyl)-1H-pyrazol-4-yl)methyl)-2,3-dihydrospiro[indene-1,4′-piperidin]-3-ol]",50 to 500 nM
17,"CS(=O)(=O)CCn1cc(CN2CCC3(CC2)OC(C(N)=O)c2ccc(Cl)cc23)nn1 (stereo not drawn) [Compound 208, 5-chloro-1′-[[1-(2-methylsulfonylethyl)triazol-4-yl]methyl]spiro[1H-isobenzofuran-3,4′-piperidine]-1-carboxamide]",≥ 500 nM
18,C[C@H]1C[C@@]2(CCN1Cc1cn(C(CO)CO)nn1)OCCc1ccc(Cl)cc12 [Compound 151],≥ 500 nM
19,Cc1ccc2c(c1)[C@]1(CCN(Cc3cn[nH]c3)[C@@H](C)C1)OCC2 [Compound 96],≤ 50 nM
20,Cc1ccc(Cn2cc(CN3CC[C@]4(C[C@@H]3C)OCCc3ccc(Cl)cc34)nn2)c(=O)[nH]1 [Compound 174],50 to 500 nM
21,"NC(=O)C1OC2(CCN(Cc3cnn(-c4ccccc4)c3)CC2)c2cc(Cl)ccc21 (single isomer, unassigned) [Compound 193, 5-chloro-1′-[(1-phenylpyrazol-4-yl)methyl]spiro[1H-isobenzofuran-3,4′-piperidine]-1-carboxamide]",50 to 500 nM
22,C[C@H]1C[C@@]2(CCN1Cc1cn(CC3(C(N)=O)CCOCC3)nn1)OCCc1ccc(Cl)cc12 [Compound 184],≤ 50 nM
